Here are results for 41 compounds from patent publication US8664257B2, “Oxygen-substituted 3-heteroaroylamino-propionic acid derivatives and their use as pharmaceuticals” (Sanofi, priority 2010, dated 2014).

A value given as a limit tells only on which side of the number the result lay.

For orientation: IC50 means the concentration at which inhibition is half-maximal.

The first assay deals with T1, Recombinant human cathepsin A (Homo sapiens, UniProt P10619).
T1 construct: Recombinant human cathepsin A (residues 29-480, with a C-terminal 10-His tag); 10-His (C); purchased R&D Systems 1049-SE
T1 sequence (P10619 29-312 limits assumed): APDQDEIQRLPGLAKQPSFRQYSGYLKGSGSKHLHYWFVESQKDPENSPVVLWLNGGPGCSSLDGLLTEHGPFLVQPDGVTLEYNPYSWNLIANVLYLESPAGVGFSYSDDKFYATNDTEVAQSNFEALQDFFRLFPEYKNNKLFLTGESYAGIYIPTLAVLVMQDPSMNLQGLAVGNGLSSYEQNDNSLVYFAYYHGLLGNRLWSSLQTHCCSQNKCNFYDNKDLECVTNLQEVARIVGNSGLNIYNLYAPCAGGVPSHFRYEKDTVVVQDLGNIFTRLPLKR
T1 sequence (P10619 327-480 limits assumed): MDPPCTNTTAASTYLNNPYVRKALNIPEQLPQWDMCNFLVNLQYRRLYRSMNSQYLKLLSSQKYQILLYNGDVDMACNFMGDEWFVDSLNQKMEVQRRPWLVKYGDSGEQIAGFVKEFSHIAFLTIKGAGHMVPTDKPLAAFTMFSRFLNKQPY
The assay is described as follows: Cathepsin A inhibitory activity. Format: biochemical. The note with it: pharmacological test "Cathepsin A inhibitory activity"; IC50 given as class A/B/C; read-out: Activity (2): Cathepsin A inhibitory activity, IC50 class. The method, then:
a) Cathepsin A Inhibitory Activity
Recombinant human cathepsin A (residues 29-480, with a C-terminal 10-His tag; R&D Systems, #1049-SE) was proteolytically activated with recombinant human cathepsin L (R&D Systems, #952-CY). Briefly, cathepsin A was incubated at 10 μg/ml with cathepsin L at 1 μg/ml in activation buffer (25 mM 2-(morpholin-4-yl)-ethanesulfonic acid (MES), pH 6.0, containing 5 mM dithiothreitol (DTT)) for 15 min at 37° C. Cathepsin L activity was then stopped by the addition of the cysteine protease inhibitor E-64 (N-(trans-epoxysuccinyl)-L-leucine-4-guanidinobutylamide; Sigma-Aldrich, #E3132; dissolved in activation buffer/DMSO) to a final concentration of 10 μM.
The activated cathepsin A was diluted in assay buffer (25 mM MES, pH 5.5, containing 5 mM DTT) and mixed with the test compound (dissolved in assay buffer containing (v/v) 3% DMSO) or, in the control experiments, with the vehicle in a multiple assay plate. After incubation for 15 min at room temperature, as substrate then bradykinin carrying an N-terminal®Bodipy FL (4,4-difluoro-5,7-dimethyl-4-bora-3a,4a-diaza-s-indacene-3-propionyl) label (JPT Peptide Technologies GmbH; dissolved in assay buffer) was added to the mixture. The final concentration of cathepsin A was 833 ng/ml and the final concentration of labeled bradykinin 2 μM. After incubation for 15 min at room temperature the reaction was stopped by the addition of stop buffer (130 mM 2-(4-(2-hydroxy-ethyl)-piperazin-1-yl)-ethanesulfonic acid, pH 7.4, containing (v/v) 0.013% Triton X-100, 0.13% Coating Reagent 3 (Caliper Life Sciences), 6.5% DMSO and 20 μM ebelactone B (Sigma, # E0886)).
Uncleaved substrate and product were then separated by a microfluidic capillary electrophoresis on a LabChip® 3000 Drug Discovery System (12-Sipper-Chip; Caliper Life Sciences) and quantified by determination of the respective peak areas. Substrate turnover was calculated by dividing product peak area by the sum of substrate and product peak areas, and the enzyme activity and the inhibitory effect of the test compound thus quantified. From the percentage of inhibition of cathepsin A activity observed with the test compound at several concentrations, the inhibitory concentration IC50, i.e. the concentration which effects 50% inhibition of enzyme activity was, calculated.
On to `N#Cc1cccc([C@H](CC(=O)O)NC(=O)c2cc(O)n(-c3ccccc3F)n2)c1` [Example 230], for which the half-maximal inhibitory concentration (IC50) lay within 100 to 1000 nM.

With `O=C(O)C[C@H](NC(=O)c1cc(O)n(-c2cccc(Cl)c2)n1)c1ccc(C(F)(F)F)cc1` [Example 256], the IC50 was 1000 to 30000 nM.

Staying with this assay, now noted: read-out: Activity (2): Cathepsin A inhibitory activity (IC50 class).
`Cc1ccccc1[C@H](CC(=O)O)NC(=O)c1cc(OCc2ccncc2)n(-c2ccccc2F)n1` [Example 629]: the IC50 is less than 100 nM.

Turning to `COc1cc(C(=O)N[C@@H](CC(=O)O)c2ccc(Cl)cc2)nn1-c1ccccc1F` [Example 671], the 50% inhibitory concentration (IC50) was less than 100 nM.

`Cc1cc(COc2cc(C(=O)N[C@@H](CC(=O)O)c3ccccc3C)nn2-c2ccccc2F)no1` [Example 657]: the IC50 is less than 100 nM.

`CCOc1cc(C(=O)N[C@@H](CC(=O)O)c2ccccc2OC)nn1-c1ccccc1F` [Example 709]: the half-inhibitory concentration (IC50) lay in the range of 100 to 1000 nM.

As for `COc1ccc(C(CC(=O)O)NC(=O)c2cc(OCC3CC3)n(-c3ccccc3F)n2)c(C)c1` (stereo not drawn) [Example 692], the IC50 was less than 100 nM.

For the compound `CCOc1cc(C(=O)NC(CC(=O)O)c2ccc(OC)cc2Cl)nn1-c1ccccc1F` (stereo not drawn) [Example 724], the IC50 is less than 100 nM.

For `O=C(O)CC(NC(=O)c1cc(O)n(-c2ccccc2F)n1)c1ccc(-c2ccccc2F)cc1` (stereo not drawn) [Example 584], the half-inhibitory concentration (IC50) was in the range of 100 to 1000 nM.

On to `O=C(O)CC(NC(=O)c1cc(O)n(-c2ccccc2Cl)n1)c1ccc(-c2ccc(C(F)(F)F)cc2)cc1` (stereo not drawn) [Example 581], for which the half-inhibitory concentration (IC50) was 1000 to 30000 nM.

As to `CCC(O)(CC)COc1cc(C(=O)N[C@@H](CC(=O)O)c2ccccc2C)nn1-c1ccccc1F` [Example 756], the 50% inhibitory concentration (IC50) was less than 100 nM.

For the compound `O=C(O)CC(NC(=O)c1cc(O)n(-c2ccccc2)n1)c1ccc(-n2cccn2)cc1` (stereo not drawn) [Example 578], the IC50 is 1000 to 30000 nM.

Take `Cc1ccccc1[C@H](CC(=O)O)NC(=O)c1cc(OCC2CCOC2)n(-c2ccccc2F)n1` (stereo partly drawn) [Example 650]: the 50% inhibitory concentration (IC50) was less than 100 nM.

On to `CCOc1cc(C(=O)N[C@@H](CC(=O)O)c2cccc(Cl)c2Cl)nn1-c1ccccc1Cl` [Example 742], for which the IC50 was less than 100 nM.

For `COc1ccc(C(CC(=O)O)NC(=O)c2cc(O)n(-c3ccccc3F)n2)c(C(F)(F)F)c1` (stereo not drawn) [Example 552, 3-{[1-(2-Fluoro-phenyl)-5-hydroxy-1H-pyrazole-3-carbonyl]-amino}-3-(4-methoxy-2-trifluoromethyl-phenyl)-propionic acid], the IC50 lay within 100 to 1000 nM.

With `COc1c(Br)c(C(=O)N[C@@H](CC(=O)O)c2ccccc2C)nn1-c1ccccc1F` [Example 594], the IC50 was less than 100 nM.

As for `CC(C)(C)[C@@](C)(O)COc1cc(C(=O)N[C@@H](CC(=O)O)c2ccccc2Cl)nn1-c1ccccc1F` (single isomer, unassigned) [Example 758], the IC50 was less than 100 nM.

The assay is the same for the next values; noted with them: read-out: Activity (2): Cathepsin A inhibitory activity, IC50 class.
In the case of `O=C(O)C[C@H](NC(=O)c1cc(O)n(-c2ccccc2F)n1)c1ccccc1C(F)(F)F` [Example 119], the IC50 was 100 to 1000 nM.

`O=C(O)C[C@H](NC(=O)c1cc(O)n(-c2ccccc2)n1)c1cccnc1` [Example 137]: the IC50 was in the range of 100 to 1000 nM.

Regarding `COc1ccc([C@H](CC(=O)O)NC(=O)c2cc(O)n(-c3ccc(F)cc3F)n2)cc1` [Example 382], the concentration for half-maximal inhibition (IC50) lay within 100 to 1000 nM.

For `O=C(O)C[C@H](NC(=O)c1cc(O)n(-c2ccc(F)cc2F)n1)c1cccnc1` [Example 389], the half-maximal inhibitory concentration (IC50) was 1000 to 30000 nM.

Turning to `COc1ccc(C(CC(=O)O)NC(=O)c2cc(O)n(-c3ccccc3)n2)cc1F` (stereo not drawn) [Example 68], the concentration for half-maximal inhibition (IC50) lay in the range of 1000 to 30000 nM.

In the case of `CC(C)(C)[C@H](O)COc1cc(C(=O)N[C@@H](CC(=O)O)c2cccc(Cl)c2)nn1-c1ccccc1F` [Example 809, (S)-3-(3-Chloro-phenyl)-3-{[1-(2-fluoro-phenyl)-5-((S)-2-hydroxy-3,3-dimethyl-butoxy)-1H-pyrazole-3-carbonyl]-amino}-propionic acid], the half-inhibitory concentration (IC50) is less than 100 nM.

On to `O=C(O)CC(NC(=O)c1cc(O)n(-c2ccccc2)n1)c1ccc(F)c(F)c1` (stereo not drawn) [Example 60], for which the 50% inhibitory concentration (IC50) lay in the range of 1000 to 30000 nM.

Consider `O=C(O)C[C@H](NC(=O)c1cc(O)n(-c2ccccc2)n1)c1ccccc1C(F)(F)F` [Example 97], for which the half-maximal inhibitory concentration (IC50) is 100 to 1000 nM.

`COc1ccc(C(CC(=O)O)NC(=O)c2cc(O)n(-c3cc(C)ccc3C)n2)cc1` (stereo not drawn) [Example 27]: the IC50 was in the range of 1000 to 30000 nM.

Turning to `O=C(O)CC(NC(=O)c1cc(O)n(-c2ccc(F)cc2)n1)c1cccc(C(F)(F)F)c1Cl` (stereo not drawn) [Example 362], the IC50 fell in the range of 100 to 1000 nM.

On to `O=C(O)CC(NC(=O)c1cc(O)n(-c2cccc(F)c2)n1)c1ccc(Cl)cc1F` (stereo not drawn) [Example 320], for which the IC50 is 100 to 1000 nM.

Regarding `Cc1ccc(C(CC(=O)O)NC(=O)c2cc(O)n(-c3cc(C)ccc3C)n2)cc1` (stereo not drawn) [Example 50], the half-inhibitory concentration (IC50) fell in the range of 1000 to 30000 nM.

Turning to `O=C(O)CC(NC(=O)c1cc(O)n(-c2ccc(Cl)cc2)n1)c1cccc(Cl)c1F` (stereo not drawn) [Example 288], the IC50 was 1000 to 30000 nM.

`CC(C)(C)[C@H](O)COc1cc(C(=O)N[C@@H](CC(=O)O)c2cccc(Cl)c2Cl)nn1-c1ccccc1F` [Example 800, (S)-3-(2,3-Dichloro-phenyl)-3-{[1-(2-fluoro-phenyl)-5-((S)-2-hydroxy-3,3-dimethyl-butoxy)-1H-pyrazole-3-carbonyl]-amino}-propionic acid]: the half-inhibitory concentration (IC50) is less than 100 nM.

On to `O=C(O)C[C@H](NC(=O)c1cc(O)n(-c2ccc(F)cc2)n1)c1ccc(Cl)cc1Cl` [Example 370], for which the IC50 lay within 100 to 1000 nM.

With `O=C(O)C[C@H](NC(=O)c1cc(O)n(-c2ccccc2F)n1)c1cccc(Cl)c1` [Example 401], the half-maximal inhibitory concentration (IC50) is 100 to 1000 nM.

With `COc1ccccc1[C@@H](NC(=O)c1cc(O)n(-c2cccc(F)c2)n1)[C@@H](O)C(=O)O` [Example 316], the 50% inhibitory concentration (IC50) is 1000 to 30000 nM.

Turning to `CC(C)[C@@](C)(O)COc1cc(C(=O)NCC(C(=O)O)c2ccccc2)nn1-c1ccccc1F` (stereo partly drawn) [Example 827, 3-{[1-(2-Fluoro-phenyl)-5-((R)-2-hydroxy-2,3-dimethyl-butoxy)-1H-pyrazole-3-carbonyl]-amino}-2-phenyl-propionic acid], the IC50 was in the range of 100 to 1000 nM.

Regarding `COc1ccc(Cl)cc1C(CC(=O)O)NC(=O)c1cc(O)n(-c2cccc(F)c2)n1` (stereo not drawn) [Example 309], the IC50 fell in the range of 100 to 1000 nM.

For the compound `O=C(O)CC1(NC(=O)c2cc(O)n(-c3ccccc3)n2)CCCC1` [Example 5], the IC50 lay within 1000 to 30000 nM.

The same assay, now with this note: recombinant human cathepsin A 833 ng/ml, Bodipy FL-labeled bradykinin 2 μM, pH 5.5; read-out: CATH-A IC50.
Consider `O=C(O)CC(NC(=O)c1cc(O)n(-c2ccccc2Cl)n1)c1cccc2c1OC(F)(F)O2` (stereo not drawn) [Example 503, 3-{[1-(2-Chloro-phenyl)-5-hydroxy-1H-pyrazole-3-carbonyl]-amino}-3-(2,2-difluoro-benzo[1,3]dioxol-4-yl)-propionic acid], for which the concentration for half-maximal inhibition (IC50) was 391 nM.

Turning to `Cc1ccc([C@H](CC(=O)O)NC(=O)c2cc(O)n(-c3ccc(F)cc3)n2)cc1` [Example 526, (S)-3-{[1-(4-Fluoro-phenyl)-5-hydroxy-1H-pyrazole-3-carbonyl]-amino}-3-p-tolyl-propionic acid], the IC50 was determined as 358 nM.

As for `COc1ccc(C(CC(=O)O)NC(=O)c2cc(O)n(-c3ccccc3F)n2)c(C(F)(F)F)c1` (stereo not drawn) [Example 552, 3-{[1-(2-Fluoro-phenyl)-5-hydroxy-1H-pyrazole-3-carbonyl]-amino}-3-(4-methoxy-2-trifluoromethyl-phenyl)-propionic acid], the 50% inhibitory concentration (IC50) was found to be 323 nM.

With `CC(C)(C)[C@@](C)(O)COc1cc(C(=O)N[C@@H](CC(=O)O)c2ccccc2Cl)nn1-c1ccccc1F` (single isomer, unassigned) [Example 758], the IC50 turned out to be 17.4 nM.

Staying with this assay, now noted: recombinant human cathepsin A; read-out: Activity (2): Cathepsin A inhibitory activity, IC50 class.
As for `O=C(O)CC(NC(=O)c1cc(O)n(-c2ccccc2Cl)n1)c1cccc2c1OC(F)(F)O2` (stereo not drawn) [Example 503, 3-{[1-(2-Chloro-phenyl)-5-hydroxy-1H-pyrazole-3-carbonyl]-amino}-3-(2,2-difluoro-benzo[1,3]dioxol-4-yl)-propionic acid], the half-maximal inhibitory concentration (IC50) was 100 to 1000 nM.

For `CC[C@@H](C)NC(=O)C[C@H](NC(=O)c1cc(OC)n(-c2ccccc2F)n1)c1ccccc1C` [Example 918, 1-(2-Fluoro-phenyl)-5-methoxy-1H-pyrazole-3-carboxylic acid [(S)-2-((R)-sec-butylcarbamoyl)-1-o-tolyl-ethyl]-amide], the IC50 lay in the range of 1000 to 30000 nM.

Consider `Cc1ccc([C@H](CC(=O)O)NC(=O)c2cc(O)n(-c3ccc(F)cc3)n2)cc1` [Example 526, (S)-3-{[1-(4-Fluoro-phenyl)-5-hydroxy-1H-pyrazole-3-carbonyl]-amino}-3-p-tolyl-propionic acid], for which the 50% inhibitory concentration (IC50) lay within 100 to 1000 nM.

Take `COc1cc(C(=O)N[C@@H](CC(=O)NCC(C)(C)CO)c2ccccc2C)nn1-c1ccccc1F` [Example 925, 1-(2-Fluoro-phenyl)-5-methoxy-1H-pyrazole-3-carboxylic acid [(S)-2-(3-hydroxy-2,2-dimethyl-propylcarbamoyl)-1-o-tolyl-ethyl]-amide]: the IC50 lay in the range of 1000 to 30000 nM.
